Laboratory results from PubChem BioAssay (NCI).
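Briefly, cells in 96-well plates were exposed to five compound concentrations for 48 h, and endpoints were estimated by linear interpolation. Definition used: TGI = concentration required for complete inhibition of growth.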

What was measured:
Assay in all cases: growth of human tumour cells (NCI), 48 h
[1] = test system: NCI-H23 lung
[2] = test system: SF-295 CNS
[3] = test system: MOLT-4 leukemia
[4] = test system: MALME-3M melanoma
[5] = test system: SF-268 CNS
[6] = test system: OVCAR-8 ovarian
[7] = test system: SF-539 CNS
[8] = test system: IGROV1 ovarian
[9] = test system: A498 renal
[10] = test system: ACHN renal
[11] = test system: CAKI-1 renal
[12] = test system: KM12 colon

SMILES | TGI [1] [µM] | TGI [2] [µM] | TGI [3] [µM] | TGI [4] [µM] | TGI [5] [µM] | TGI [6] [µM] | TGI [7] [µM] | TGI [8] [µM] | TGI [9] [µM] | TGI [10] [µM] | TGI [11] [µM] | TGI [12] [µM]
CN(C)CC1CCC/C(=C\c2ccccc2)C1=O (stereo not given) | 22.8 | 35.2 | > 100 | 3.46 | 7.44 | 14.7 | 14.3 | 13.9 | 31.2 | 12.6 | 3.2 | 2.59
COC(=O)C(=O)C(/C(=N/N)C(=O)Nc1ccccc1C(N)=O)c1nc2ccc([N+](=O)[O-])cc2[nH]c1=O (stereo not given) | > 100 | > 100 | > 100 | > 100 | > 100 | > 100 | > 100 | > 100 | > 100 | > 100 | > 100 | > 100
CCOC(=O)C1(N)CC1 | > 100 | > 100 | > 100 | > 100 | > 100 | > 100 | > 100 | > 100 | > 100 | > 100 | > 100 | > 100
CCNc1nnc(-c2ccccc2Nc2ccccc2-c2nnc(NCC)s2)s1 | 73.3 | 40.5 | > 78.3 | 58.4 | 68.6 | > 83.9 | – | > 100 | 91 | 31 | 17 | 37.2
CN(C)c1ccc(/C=C(\NC(=O)c2ccccc2)C(=O)Nc2cccc(C(=O)NCCCO)c2)cc1 | > 100 | > 100 | > 100 | > 100 | > 100 | > 100 | > 100 | > 100 | > 100 | > 100 | > 100 | > 100
COc1ccc(-c2nc3c(C(=O)NCCN(C)C)cccc3c3ccccc23)cc1 | 19.6 | 4.83 | 6.55 | 8.7 | 24.5 | 20.6 | 4.87 | 14.6 | 8.96 | 12.8 | 7.05 | 14.9
COc1ccccc1NC(=O)CC(=O)N1N=C(c2ccccc2)C(N=Nc2ccc(Cl)cc2)C1=O (stereo not given) | > 100 | 70.3 | > 100 | – | > 100 | > 100 | > 100 | > 100 | 35.2 | 47.3 | > 100 | > 100
CN1CC2=C(NC(=S)NC2c2ccccc2Cl)/C(=C/c2ccccc2Cl)C1 (stereo not given) | > 100 | > 100 | 75.5 | 74.4 | > 100 | > 100 | > 100 | > 100 | > 100 | > 100 | > 100 | > 100
CCOc1cccc(-c2cc(=O)c3cc4c(cc3[nH]2)OCO4)c1 | > 100 | 0.329 | > 100 | > 75.1 | > 82.1 | 2.7 | 0.549 | > 100 | > 100 | > 62.3 | 9.67 | –
O=[N+]([O-])C(/C=C(\Cl)[N+](=O)[O-])=C(N1CCCCC1)N1CCCCC1 | > 100 | > 100 | > 100 | 21.4 | > 100 | > 100 | 56.7 | 61.1 | 93.3 | > 100 | > 100 | > 100
CCCCCCCCCCCCC(Br)C(C)=O (stereo not given) | > 100 | > 100 | – | > 100 | > 100 | > 100 | > 100 | > 100 | > 100 | > 100 | – | > 100
C#CCOCn1cc(C)c(=O)[nH]c1=O | > 100 | > 100 | > 100 | > 100 | > 100 | > 100 | > 100 | > 100 | > 100 | > 100 | > 100 | > 100
Cc1ccsc1C(=S)Nc1ccc(Cl)c(/C=N/OC(C)C)c1 | > 100 | > 100 | 35.2 | 98.9 | > 100 | > 100 | > 100 | > 100 | > 100 | > 100 | > 100 | > 100
COC(=O)[C@]12CSC[C@H]1C[C@H](c1cccc3ccccc13)N2 | > 100 | > 100 | 61.4 | – | – | > 100 | > 100 | > 100 | > 100 | > 100 | > 100 | > 100
O=C(CN=C(CN(c1ccccc1)c1ccccc1)Oc1ccc(Cl)cc1Cl)n1ccnc1 | > 100 | > 100 | > 100 | > 100 | > 100 | > 100 | > 100 | > 100 | > 100 | > 100 | – | > 100
COc1cc(CNc2cnc3ccc(N)cc3n2)cc(OC)c1OC | > 100 | > 100 | > 100 | > 100 | > 100 | > 100 | > 100 | > 100 | > 100 | > 100 | > 100 | > 100
CC1=CC(=O)N(n2c(Cc3ccc(Cl)cc3)n[nH]c2=O)C1=O | > 100 | > 100 | 47.4 | > 100 | > 100 | > 100 | > 100 | > 100 | > 100 | > 100 | > 100 | > 100
Cc1ccc(-c2nnc3s/c(=C\c4ccc(N(C)C)cc4)c(=O)n23)cc1 | > 100 | > 100 | > 100 | > 100 | > 100 | > 100 | > 100 | > 100 | > 100 | > 100 | > 100 | > 100
O=S(=O)(c1cc(Cl)ccc1Cl)N1CCN(c2cccc(Cl)c2)CC1 | > 100 | > 100 | > 100 | > 100 | > 100 | > 100 | > 100 | > 100 | > 100 | > 100 | > 100 | > 100
